Patent US12569477B2, “Compositions for synergistically enhancing mitochondrial function” (MITOCHOLINE LTD, priority 2017, dated 2026)

How the values were obtained:
[1] = tested on: primary myotubes; test: Autophagy/mitophagy: co-localization of mitochondria and lysosomes in primary myotubes; type: cell-based, rat; details: 50 μM DiSU+20 μM NAM or single components in corresponding molar amounts
Description: The upper panels show confocal images of cells loaded with two dyes MitoTracker Green (labeling mitochondria) and LysoTracker Red (labeling lysosomes); the lower panel: quotative evaluation of co-localization of mitochondria and lysosomes in cells. […] Values are presented as mean±SD. **P<0.001. Independent experiments (n) are indicated as dots in the scatter plot.

[2] = tested on: primary neurons and astrocytes; test: Mitochondrial NADH autofluorescence in primary neurons and astrocytes; type: cell-based, mouse; details: for NADH autofluorescence, % of control: after 20 min of incubation; for NADH autofluorescence, % of control / Initial change of mitochondrial NADH level on application: DiSU 50 μM, NAM 20 μM, sodium succinate 50 μM
Method: Mixed cultures of cortical neurons and glial cells were prepared as described, from mouse pups 1-3 days postpartum. Neurons were easily distinguishable from glia: they appeared phase bright, had smooth rounded somata and distinct processes, and positioned just above the focal plane of the glial layer. Cells were used at 14-21 DIV. Experiments were conducted in HBSS solution at the 37° C.
To estimate the mitochondrial pool of NADH, maximal activation of mitochondrial respiration is induced by uncoupler FCCP (mitochondrial NADH is taken 0) followed by inhibition of respiration by NaCN (NADH is maximal due to inhibition of consumption). This set up provides evaluation of several characteristics: the rate of NADH production in TCA cycle (recovery of the NADH signal after NaCN), total mitochondrial pool and redox index.

[3] = tested on: primary myotubes; test: Mitochondrial membrane potential (TMRM) in primary myotubes; type: cell-based, rat; details: DiSU 50 μM, NAM 20 μM, or both (2:1:0.4); n=67 myotubes
Method: (§1) Primary Skeletal Muscle Cell culture. Primary myotube cells were obtained from postnatal day 0-2 (P0-P2) rat pups which were sacrificed by decapitation. Briefly, the rats were immersed in 70% ethanol and the hind-limbs removed under a dissection microscope, in dissection solution containing Dulbecco's Phosphate Buffered Saline (PBS) with penicillin streptomycin (5000 units/ml) and Amphotericin B (2.5 mg/L). The tissues were then digested in 0.2% collagenase solution at 37° C. for 30-40 minutes.
The reaction was stopped by adding 2-3 ml fetal bovine serum (FBS), and the tissue suspension was centrifuged at 2010 rpm (700 g) for 10 minutes. The cell pellet was resuspended in pre-warmed growth medium, Dulbecco's modified Eagle's medium (DMEM), containing 20% FBS, 100 i.u./ml penicillin and 200 i.u./ml streptomycin], and plated on 22 mm coverslips that were pre-coated with 0.2% gelatin for 1 hour at 37° C. […]
Tetramethyl rhodamine methyl ester (TMRM) was used to study the changes of the mitochondrial membrane potential (Δψm). […] TMRM fluorescence was excited at 543 nm (HeNe laser), and emission was measured at >560 nm. […] Therefore, the changes in potential are reflected by changes in fluorescence intensity within the mitochondria which is measured after thresholding out the background signal from the cytosol to give a mean value per pixel within the mitochondrial population of a cell. […]

[4] = tested on: whole-brain ATP levels; details: for ATP, % (ATP levels in the brain at 15th min after ischemia onset, in percent to baseline): male rats, 10 mg/kg for 7 days, global ischemia, mean±SEM, baseline 100%, saline 35.3 ± 3.0
Method: Then global ischemia was induced in rats by cardiac arrest under anesthesia and whole-brain ATP levels were measured by 31P NMR in vivo for 15 min. Results are presented in Table 3 as mean±SEM ATP levels in the brain at 15th min after ischemia onset, in percent to baseline (accepted for 100%).

[5] = tested on: cortical neurons and glial cells; test: ATP levels in mixed primary cultures of cortical neurons and glial cells (AT1.03 probe, confocal microscopy); details: same treatments as ATP, control 0
Method: Mixed primary cultures of cortical neurons and glial cells were prepared from mouse pups 1-3 days postpartum, as described by Vaarmann A. et al., 2010 (Cell Calcium 2010, 48(2-3):176-82). For measurements of ATP, the cells at 14-21 DIV were transfected for 24 h with the ATP sensing probe AT1.03 (as described in Imamura H et al., PNAS 2009, 106(37):15651-15656) using Lipofectamine 2000 according to the manufacturer's instructions. […] Then, ATP levels in cells were measured using confocal microscopy. […] All data presented were obtained from at least 5 coverslips and 2-3 different cell preparations.
Mean of ATP levels in non-treated cells (control) was accepted for 100%. Effects of the treatments on ATP levels in cells (ΔATP) were calculated by formula: ΔATP=ATPtreat−ATPcontrol, wherein ATPtreat is ATP level in treated cells and ATPcontrol is ATP levels in control cells.

[6] = tested on: primary myotubes; test: Mitochondrial NADH redox index and NADH pool in myotube cultures; type: cell-based, rat; details: blend 1: 100 μM DiSU+40 μM NAM; blend 2: 50 μM DiSU+20 μM NAM; choline (100, succinate (50 μM), NAM (50 μM)); FIG. 1B
Method: as §1
The reaction was stopped by adding 2-3 ml fetal bovine serum (FBS), and the tissue suspension was centrifuged at 2010 rpm (700 g) for 10 minutes. The cell pellet was resuspended in pre-warmed growth medium, Dulbecco's modified Eagle's medium (DMEM), containing 20% FBS, 100 i.u./ml penicillin and 200 i.u./ml streptomycin], and plated on 22 mm coverslips that were pre-coated with 0.2% gelatin for 1 hour at 37° C. Cells were then cultured in a humidified CO2 incubator (5% CO2 in air) at 37° C. After 2 or 3 days, the medium was changed to a low-serum medium (DMEM containing 10% FBS without antibiotics), and was subsequently renewed every 3 or 4 days. All experiments were performed in vitro between days 2 and 11 in culture when spindle-shaped myoblasts had proliferated and aligned themselves for fusion (˜70% confluency).

Molecule | Autophagy (co-localization of mitochondria and lysosomes) [1] | Increase in TMRM fluorescence (mitochondrial membrane potential) compared to control [3] | ATP, % (ATP levels in the brain at 15th min after ischemia onset, in percent to baseline) [4] [%] | NADH autofluorescence, % of control [2] | Initial change of mitochondrial NADH level on application [2] | further results
NC(=O)c1cccnc1 [NAM, nicotinamide] | not | increase | – | – | – | Mitochondrial NADH pool, % of control ([2]; NAM 20 μM alone, short term (15-20 min)): 116±8 % of control
choline succinate salt (2:1) [DiSU] | significantly increase | increase | 55.5 ± 4.8 | 123±6 % of control | only slight initial decrease | ATP levels in the brain under normoxia ([4]; rats, normoxia): did not affect
O=C([O-])CCC(=O)[O-].[K+].[K+] [Dipotassium succinate, dipotassium succinate] | – | – | 40.9 ± 9.0 | – | – | –
O=C(O)c1cccnc1 [Nicotinic acid, nicotinic acid] | – | – | – | – | – | ΔATP, % (ATPtreat−ATPcontrol) [5]: +1%
O=C([O-])CCC(=O)[O-].[Na+].[Na+] [Sodium succinate, sodium succinate] | not | – | 34.3 ± 2.4 | not detected a noticeable increase | fast and significant decrease | NADH redox index [6]: did not induce significant changes
C[N+](C)(C)CCO.[Cl-] [Choline chloride, choline chloride] | – | – | 36.8 ± 5.0 | – | – | –
